In patent publication US11766068B1, “Method of treating smokeless tobacco” (Altria Client Services LLC, priority 2009, dated 2023):

Assays:
Klebsiella pneumoniae = details: cited from earlier work
[1] = for chelation of free calcium of MST-extract: 9.5 mM chelator in MST-extract
Protocol: The term “free” with regard to (1) calcium and (2) iron refers to (1) Ca^2+ and (2) Fe^2+ and/or Fe^3+, respectively. Determination of an amount of free iron and/or free calcium in smokeless tobacco can be made by first incubating the smokeless tobacco with any chelators that may be used for an appropriate amount of time (for example, one day), then separating extract by centrifugation with glass beads. […] Then, fifteen grams of Glass Beads (Kimble; 6 MM catalog # 13500-6) can be added to the Vectrospin™ tube containing the tobacco. The tube is preferably centrifuged at 2200 g for 20 minutes to recover tobacco extract. Free calcium and iron can be measured using the respective QuantiChrom™ assay kits (BioAssay Systems, Hayward, CA) according to the manufacturer’s instructions.

cells = assay: Cell death during cell wounding by washed MST, platform rocker exposure system; assay type: cell-based; details: for cell death associated with MST-extract exposure during cell wounding: MST-extract containing 9.5 mM chelator, with washed MST, 30 minutes
Protocol: Cell death was measured immediately following treatment.
We then treated cells for 30 minutes with MST-extract/chelator preparations in the presence of washed MST using the platform exposure system and assessed cell death immediately following treatment.

HOK-16B cells [2] = assay: Morphologic assessment of necrotic/apoptotic cell death (Hema 3 staining); assay type: cell-based, human; details: for protection from STE-induced cell death: TROLOX 20 µmol/L, L-ascorbic acid 50 µmol/L or deferoxamine 50 µmol/L, 30 min prior to STE, FIG. 1D
Protocol: (§1) Extracts of smokeless tobacco were prepared in cell growth medium as follows. One gram of reference smokeless tobacco was mixed with 10 ml of cell growth medium and placed on a shaker at 300 rpm and allowed to mix for 2 hours at 37° C. It was then centrifuged at 125 g for 10 minites at 4° C. The extracted supernatant was collected and centrifuged at 14,000 g for 1 hour at 4° C. The supernatant was filtered using a 0.22 µm filter, divided into aliquots, and immediately stored at -80° C. The extracted supernatant yielded a 100 mg/ml smokeless tobacco extract (STE) solution, which was serially diluted to obtain the doses of STE (1-100 mg/ml) used.
The primary HOK cells, isolated from human oral mucosa, were plated on poly-L-lysine coated plates at a density of 5 × 10^5 cells/well in a 12-well plate and cultured in keratinocyte medium at 37° C. in a humidified atmosphere containing 5% CO2 (v/v). HOK-16B cells were plated at a density of 5 × 10^5 cells/well in a 12-well plate and cultured in keratinocyte growth medium supplemented with 0.1 ng/ml epidermal growth factor, 5 µg/ml insulin, 30 µg/mlgentamicin, and 50 µg/mlamphoterecin at 37° C. in a humidified atmosphere containing 5% CO2 (v/v). The Het-1A cells were attached to plates pre-coated with LHC-9 medium supplemented with 0.01 mg/ml fibronectin, 0.03 mg/ml bovine collagen type I and 0.01 mg/ml bovine serum albumin for 1 hour, at a density of 5 × 10^5 cells/well in a 12-well plate and cultured in LHC-9 medium at 37° C. in a humidified atmosphere containing 5% CO2 (v/v). Unless otherwise indicated, cells were exposed to STE at 24 hours after plating.
Cells were treated with TROLOX (6-hydroxy-2,5,7,8-tetramethylchroman-2-carboxylic acid, a water-soluble derivative of vitamin E) at 20 µmol/L, L-ascorbic acid (50 µmol/L), or deferoxamine (50 µmol/L) 30 min prior to STE addition. Treatment was from a 10 mM stock solution of each agent, and the maximal concentration of vehicle [dimethyl sulfoxide (DMSO)] in culture medium was 0.01% (v/v). When possible, agents were diluted in appropriate cell culture medium (TROLOX, L-ascorbic acid, deferoxamine). Exposure to STE is expressed in terms of the amount of reference MST used to produce the total volume of STE [i.e., 100 mg/ml (w/v)]. The indicated concentrations of STE (1-100 mg/ml) exposure were chosen for these studies because they are within the reference range of previously cited works involving smokeless tobacco exposure (Bagchi et al., “Smokeless tobacco, oxidative stress, apoptosis, and antioxidants in human oral keratinocytes.: Free Radic. Biol. Med. 26, 992-1000 (1999); Mangipudy et al., “Role of nitric oxide in the induction of apoptosis by smokeless tobacco extract.” Mol Cell Biochem. 200, 51-57 (1999); and Petro, “Modulation of IL-12 p35 and p40 promoter activity by smokeless tobacco extract is associated with an effect upon activation of NF-kappaB but not IRF transcription factors.” Int. Immunopharmacol.
Morphologic assessment of viable cells and apoptotic and necrotic cell death was performed as follows. Cells were harvested 3 hours after STE exposure, unless otherwise noted, by treatment with trypsin-EDTA for approximately 5 minutes at 37° C. As some apoptotic cells detached from the culture substratum into the medium, these cells were also collected by centrifugation of the medium at 125 g for 5 minutes. […] Nuclear and total cellular morphology were evaluated. […]

HOK-16B cells [3] = assay: Intracellular ROS generation (DCFH-DA fluorescence) after STE exposure; assay type: cell-based, human; details: TROLOX 20 µmol/L, L-ascorbic acid 50 µmol/L or deferoxamine 50 µmol/L, 30 min prior to STE addition; FIG. 1C
Protocol: as §1, with “used. […]” for “used.”
The intracellular generation of reactive oxygen species (ROS) was measured by using membrane permeable oxidation-sensitive fluorescent dye DCFH-DA. […] Fluorescence measurements were obtained 0 to 3 hours after STE addition, at the indicated concentrations, with a plate reader. Thirty minutes before the measurement of ROS in the plate reader, cells were incubated with DCFH-DA (25 µmol/L) or DMSO vehicle. The medium was then rapidly removed, the cells were washed in ice-cold phosphate-buffered saline and replaced with medium lacking dye, and the plate was placed into the plate reader. Data at each time point are presented corrected for basal fluorescence of vehicle-treated cells at the same time point. […]

Compound | capsule production of Klebsiella pneumoniae (Klebsiella pneumoniae) | chelation of free calcium of MST-extract [1] | cell death associated with MST-extract exposure during cell wounding (cells) | production of ROS induced by STE (HOK-16B cells [3]) | protection from STE-induced cell death (HOK-16B cells [2]) | further results
O=C(O)CN(CCN(CC(=O)O)CC(=O)O)CC(=O)O [EDTA, ethylenediamine tetraacetic acid] | reduced capsule production | nearly all | reduced cell death | – | – | –
O=C(O)CN(CCOCCOCCN(CC(=O)O)CC(=O)O)CC(=O)O [EGTA, ethylene glycol tetraacetic acid] | reduced capsule production | nearly all | reduced cell death | – | – | free calcium levels in the high Ca2+ medium after chelator addition ([1]; 13.5 mM Ca2+ medium): less than 2 mM; cell death with chelator-treated high Ca2+ medium in combination with washed MST (cells; free calcium reduced to less than 2 mM): significantly reduced degree of cell death
[Cl][Fe]([Cl])[Cl] [FeCl3] | – | – | – | – | – | percent necrotic cell death after 3 hours (HOK-16B cells [2]; free iron 14 pM in cell culture medium without STE, 0 pM gave 4.9 ± 0.6%): 13.4 ± 1.0%; percent necrotic cell death after 3 hours (HOK-16B cells [2]; free iron 31 pM in cell culture medium without STE): 26.2 ± 3.5%; percent necrotic cell death after 3 hours (HOK-16B cells [2]; free iron 71 pM in cell culture medium without STE): 37.9 ± 4.5%
O=C1O[C@H]([C@@H](O)CO)C(O)=C1O [L-ascorbic acid] | – | – | – | completely suppressed | can protect against cell death | –
Cc1c(C)c2c(c(C)c1O)CCC(C)(C(=O)O)O2 (stereo not drawn) [TROLOX, 6-hydroxy-2,5,7,8-tetramethylchroman-2-carboxylic acid] | – | – | – | completely suppressed | can protect against cell death | –
